From PubChem BioAssay (NCI)
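Five compound concentrations were applied to cells in 96-well plates for 48 hours; endpoints were derived by simple linear interpolation of the resulting dose-response curve. TGI: concentration producing complete growth inhibition.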

Assays:
Assay in all cases: growth of human tumour cells (NCI), 48 h
OVCAR-3 ovarian = tested on: OVCAR-3 ovarian
ACHN renal = tested on: ACHN renal
IGROV1 ovarian = tested on: IGROV1 ovarian
MDA-N = tested on: MDA-N
U251 CNS = tested on: U251 CNS
SF-295 CNS = tested on: SF-295 CNS
NCI/ADR-RES ovarian = tested on: NCI/ADR-RES ovarian
UACC-62 melanoma = tested on: UACC-62 melanoma
NCI-H460 lung = tested on: NCI-H460 lung
SK-MEL-2 melanoma = tested on: SK-MEL-2 melanoma
HCT-116 colon = tested on: HCT-116 colon
SK-MEL-5 melanoma = tested on: SK-MEL-5 melanoma
MOLT-4 leukemia = tested on: MOLT-4 leukemia
KM12 colon = tested on: KM12 colon
K-562 leukemia = tested on: K-562 leukemia
TK-10 renal = tested on: TK-10 renal
SK-OV-3 ovarian = tested on: SK-OV-3 ovarian
EKVX NSCLC = tested on: EKVX NSCLC
SW-620 colon = tested on: SW-620 colon
HL-60(TB) leukemia = tested on: HL-60(TB) leukemia
MDA-MB-435 = tested on: MDA-MB-435
HOP-92 NSCLC = tested on: HOP-92 NSCLC
786-0 renal = tested on: 786-0 renal
OVCAR-8 ovarian = tested on: OVCAR-8 ovarian
RXF 393 renal = tested on: RXF 393 renal
LOX IMVI melanoma = tested on: LOX IMVI melanoma
SK-MEL-28 melanoma = tested on: SK-MEL-28 melanoma
HCT-15 colon = tested on: HCT-15 colon
COLO 205 colon = tested on: COLO 205 colon
HCC-2998 colon = tested on: HCC-2998 colon
RPMI-8226 leukemia = tested on: RPMI-8226 leukemia
HT29 colon = tested on: HT29 colon
BT-549 breast = tested on: BT-549 breast
M14 melanoma = tested on: M14 melanoma
UACC-257 melanoma = tested on: UACC-257 melanoma
DU-145 prostate = tested on: DU-145 prostate
A498 renal = tested on: A498 renal
OVCAR-5 ovarian = tested on: OVCAR-5 ovarian
A549 NSCLC = tested on: A549 NSCLC
SNB-75 CNS = tested on: SNB-75 CNS
HOP-62 NSCLC = tested on: HOP-62 NSCLC
OVCAR-4 ovarian = tested on: OVCAR-4 ovarian
CAKI-1 renal = tested on: CAKI-1 renal
MCF7 breast = tested on: MCF7 breast
SNB-19 CNS = tested on: SNB-19 CNS
NCI-H23 lung = tested on: NCI-H23 lung
PC-3 prostate = tested on: PC-3 prostate
UO-31 renal = tested on: UO-31 renal
NCI-H226 lung = tested on: NCI-H226 lung
NCI-H522 lung = tested on: NCI-H522 lung
MDA-MB-231 breast = tested on: MDA-MB-231 breast
CCRF-CEM leukemia = tested on: CCRF-CEM leukemia
HS 578T breast = tested on: HS 578T breast
SF-268 CNS = tested on: SF-268 CNS
SR leukemia = tested on: SR leukemia
SN12C renal = tested on: SN12C renal
MALME-3M melanoma = tested on: MALME-3M melanoma
SF-539 CNS = tested on: SF-539 CNS

Measured: TGI

Cc1ccc2nc(-n3c(/C=C/c4ccccc4O)nc4ccccc4c3=O)sc2c1
not listed: SF-268 CNS | SR leukemia | SN12C renal | MALME-3M melanoma | SF-539 CNS
> 100 µM: all other assays above

O=C(CN1CCN(c2ccccc2)CC1)c1ccc2[nH]c(=O)oc2c1
not listed: SK-MEL-5 melanoma | HOP-92 NSCLC | HCC-2998 colon | A549 NSCLC | OVCAR-4 ovarian | SNB-19 CNS | UO-31 renal | NCI-H522 lung
> 100 µM: all other assays above

O=C1C(=C/C=C2/SC(c3ccccc3)(c3ccccc3)c3ccccc32)C(=O)c2ccccc21
not listed: SK-MEL-2 melanoma | HL-60(TB) leukemia | CCRF-CEM leukemia | SR leukemia
> 100 µM: all other assays above
